System: Rat Cerebral Cortex Neuronal Culture
Assay: Apoptosis induction by Amyloid β peptide (Aβ 25-35) in PGT 40/PGT 70-transfected neurons and inhibiting action of PGE 1
Type: cell-based
Conditions: Aβ 25-35 exposure 24 hours
From the text: PGT 40 or PGT 70 cDNA was inserted into pTracer-SV 40 vector (Invitrogen) to construct an expression vector. PGT 40 means the brain-type PGT of the present invention. PGT 70 means the lung-type PGT which was disclosed in the prior art literature.
Fetus of 17 days age (viviparous) was ejected from pregnant rat of SD strain and, in an ice-cold L-15 medium (Invitrogen), cerebral cortex was collected from brain of the fetus. After it was finely cut by scissors, cells were dispersed using a kit for dispersing the neurons (Sumilon), sowed on a polyethyleneimine-coated cover glass (diameter: 12 mm; manufactured by Asahi Technoglass) in a living cell density of 1.6×10^5 cells/cm^2 and cultured (at 37° C. with 5% of CO2). […]
After the cells were fixed (at room temperature for 5 minutes) with a 10% neutral buffered formalin solution, they were stained with 0.01 mg/mL Hoechst 33342 (being dissolved in PBS(−); Molecular Probe) and, under a fluorescent microscope, […] total cell numbers and apoptosis cells (the cells which were aggregated and fragmented by chromatin) were counted in random 20 fields for one example whereupon the apoptosis-positive cell percentage (%) was calculated. […]

Compound	effect of PGT expression on anti-apoptosis action of PGE1 (apoptosis-positive cell percentage / apoptosis inhibiting rate) (neurons transfected with PGT expression vector, PGE 1 0.01, 0.1, 1 and 10 μM, Hoechst 33342 staining)	action of PGE1 on Aβ-induced apoptosis (PGE 1 0.01, 0.1, 1 and 10 μM added together with Aβ)
PGT40: the brain-type PGT (prostaglandin transporter) of the present invention, SEQ ID NO: 3, expressed from pTracer-SV 40 vector	accelerate anti-apotosis action of PGE1	
CCCCC[C@H](O)/C=C/[C@H]1[C@H](O)CC(=O)[C@@H]1CCCCCCC(=O)O [PGE1]		anti-apotosis action
